Data published in PubChem BioAssay (NCI).
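Grown in 96-well plates, cells were treated for 48 hours with each compound at five concentrations. Insufficient inhibition: endpoint recorded as highest concentration tested. TGI is the concentration that stops growth completely.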

What was measured:
Assay in all cases: NCI tumour cell line growth inhibition, 48 h
[1] = system: NCI-H226 lung
[2] = system: P388/ADR leukemia
[3] = system: A498 renal
[4] = system: K-562 leukemia
[5] = system: UACC-62 melanoma
[6] = system: SNB-75 CNS
[7] = system: XF 498 CNS
[8] = system: COLO 205 colon
[9] = system: LOX IMVI melanoma
[10] = system: U251 CNS
[11] = system: SNB-78 CNS
[12] = system: CAKI-1 renal
[13] = system: NCI-H460 lung
[14] = system: SF-268 CNS
[15] = system: KM12 colon
[16] = system: MALME-3M melanoma
[17] = system: SK-MEL-5 melanoma
[18] = system: OVCAR-3 ovarian
[19] = system: HT29 colon
[20] = system: RXF 393 renal
[21] = system: SK-OV-3 ovarian
[22] = system: KM20L2 colon
[23] = system: NCI-H522 lung
[24] = system: OVCAR-4 ovarian
[25] = system: SNB-19 CNS
[26] = system: HCT-116 colon
[27] = system: IGROV1 ovarian
[28] = system: HOP-92 NSCLC
[29] = system: MCF7 breast
[30] = system: MOLT-4 leukemia
[31] = system: A549 NSCLC
[32] = system: OVCAR-5 ovarian
[33] = system: SW-620 colon
[34] = system: SN12C renal
[35] = system: SN12K1 renal
[36] = system: UO-31 renal
[37] = system: CCRF-CEM leukemia
[38] = system: SF-295 CNS
[39] = system: HOP-62 NSCLC
[40] = system: DMS 273 small cell lung
[41] = system: HL-60(TB) leukemia
[42] = system: SK-MEL-2 melanoma
[43] = system: P388 leukemia
[44] = system: SK-MEL-28 melanoma
[45] = system: OVCAR-8 ovarian
[46] = system: EKVX NSCLC
[47] = system: HCC-2998 colon
[48] = system: DMS 114 small cell lung
[49] = system: UACC-257 melanoma
[50] = system: HCT-15 colon
[51] = system: RPMI-8226 leukemia
[52] = system: NCI/ADR-RES ovarian
[53] = system: DLD-1 colon
[54] = system: M19-MEL melanoma
[55] = system: SF-539 CNS
[56] = system: NCI-H23 lung

COc1cc(CCCOC2OC(COC3OCC(O)C(O)C3O)C(O)C(O)C2O)cc2cc(-c3ccc4c(c3)OCO4)oc12 (stereo unspecified)
TGI [1]: > 175 µM
TGI [2]: > 175 µM
TGI [3]: > 27.7 µM
TGI [4]: > 175 µM
TGI [5]: > 175 µM
TGI [6]: > 175 µM
TGI [7]: > 175 µM
TGI [8]: > 175 µM
TGI [9]: > 175 µM
TGI [10]: > 175 µM
TGI [11]: > 175 µM
TGI [12]: > 175 µM
TGI [13]: > 175 µM
TGI [14]: > 175 µM
TGI [15]: > 175 µM
TGI [16]: > 175 µM
TGI [17]: > 175 µM
TGI [18]: > 175 µM
TGI [19]: > 175 µM
TGI [20]: > 114 µM
TGI [21]: > 175 µM
TGI [22]: > 175 µM
TGI [23]: > 175 µM
TGI [24]: > 175 µM
TGI [25]: > 175 µM
TGI [26]: > 175 µM
TGI [27]: > 175 µM
TGI [28]: > 175 µM
TGI [29]: > 175 µM
TGI [30]: > 175 µM
TGI [31]: > 175 µM
TGI [32]: > 175 µM
TGI [33]: > 175 µM
TGI [34]: 99.5 µM
TGI [35]: > 175 µM
TGI [36]: > 175 µM
TGI [37]: > 69.7 µM
TGI [38]: > 175 µM
TGI [39]: > 175 µM
TGI [40]: > 175 µM
TGI [41]: > 175 µM
TGI [42]: > 175 µM
TGI [43]: > 175 µM
TGI [44]: > 175 µM
TGI [45]: 109 µM
TGI [46]: > 175 µM
TGI [47]: > 98.4 µM
TGI [48]: > 175 µM
TGI [49]: > 175 µM
TGI [50]: > 175 µM
TGI [51]: > 175 µM
TGI [52]: > 175 µM
TGI [53]: > 175 µM
TGI [54]: > 175 µM
TGI [55]: > 175 µM
TGI [56]: > 175 µM
